Laboratory results taken from patent publication US20230190887A1, “TARGETING G3BP AGGREGATION TO PREVENT NEURODEGENERATION” (priority 2019, published 2023).
Entries after “also recorded” stand apart in the source; their conditions may differ.

Assays:
[1] = test system: axons of E18 cortical neurons; test: Aβ oligomer-mediated axon degeneration in microfluidic cultures; assay type: cell-based; details: axons only exposed: Aβ oligomer 1 μM for 16 hours ± 190-208 G3BP1 peptide 1 μM
Experimental: To test whether the cell permeable G3BP1 190-208 peptide protects against this early axonal degeneration, the current disclosure exposed only the axons of E18 cortical neuron cultures to Aβ peptide using microfluidic cultures (FIG. 16A). […] Thus, the cell permeable G3BP1 190-208 peptide protects axons from the neurotoxic effects of Aβ oligomers through axon intrinsic mechanisms.
E18 cortical neurons were plated into the cell-body compartment (blue); after 7 DIV axons from these neurons extend through the microchannels into the axon compartment (pink). […] Yellow line indicates the exit of the axons from the microchannels.

E18 midbrain neurons = test: MPP+-induced neurite degeneration of midbrain neurons; assay type: cell-based, rat; details: DIV7 E18 midbrain neurons, 100 μM MPP+ 16-18 hours, with 10 μM peptide
Experimental: (§1) To test whether the triggering disassembly of stress granules would be protective in Parkinson's and Alzheimer's disease, the inventors employed 1-methyl-4-phenylpyridinium (MPP+)-induced and amyloid β (Aβ)-mediated neurotoxicity models. Rat embryonic day 18 (E18) midbrain neurons cultured for 7 days were treated for 16-18 hours with 100 μM MPP+, see FIGS. 1A and B, while E18 cortical neurons were treated with 1 μM Aβ oligomer, see FIGS. 2A-2B, with or without 10 μM G3BP1 190-208 or 168-189 peptide. As a control, the inventors used non-treated neurons.
FIG. 1: Cell permeable G3BP1 190-208 peptide rescues MPP+-induced degeneration of midbrain neurons. (A) Representative images for NF-labeled (white) DIV7 E18 midbrain neurons. DIV7 midbrain cultures were treated with 100 μM MPP+ (ii) or control (i) and […] 190-208 G3BP1 peptide (iv) or 168-189 control peptide (iii) [scale bar=100 μm]. (B) Quantification of neurite degeneration in midbrain neurons in control or 100 μM MPP+-treated neurons after addition of 190-208 G3BP1 or 168-189 control peptide. […] (N≥95 over 3 cultures; by one-way ANOVA with Tukey HSD post-hoc).

E18 cortical neurons = test: Aβ-induced neurite degeneration of cortical neurons; assay type: cell-based, rat; details: DIV7 E18 cortical neurons, 1 μM Aβ oligomer 16-18 hours, with 10 μM peptide
Experimental: as §1
FIG. 2: Cell permeable G3BP1 190-208 peptide blocks pathological degeneration beta-amyloid-induced neurotoxicity in cortical neurons. (A) Representative images of NF-labeled (white) E18 cortical neurons. DIV7 cortical neurons were treated with […] (ii) or control (i) and 10 μM 190-208 G3BP1 peptide (iv) or 10 μM 168-189 control peptide (iii) [scale bar=100 μm]. (B) Quantitation of degeneration in cortical neurons treated with 1 μM Aβpeptide-treated neurons after addition of 190-208 G3BP1 or 168-189 control peptide. Solvent treated cells were used as control. […] (N≥95 over 3 cultures; by one-way ANOVA with Tukey HSD post-hoc).

[2] = test system: wild-type or ALS/FTD-associated mutant (P362L, A381T, E384K) TIA1-GFP in HEK cells; test: TIA1-GFP aggregates in arsenite-treated HEK cells; assay type: cell-based; details: sodium arsenite 0.5 mM 30 minutes, then 10 μM peptide
From the text: The inventors tested whether the G3BP1 190-208 peptide would prevent the aggregation of granules formed by TIA1 and TDP43 mutant proteins associated with ALS and FTD. […] Next, we treated HEK cells expressing wild-type and or ALS/FTD-associated mutants (P362L, A381T, or E384K)TIA1, with arsenite a potent inducer of SG aggregation, in addition to either G3BP1 190-208 peptide or control G3BP1 168-189 peptide.
FIG. 5: Cell permeable G3BP1 190-208 peptide decreases TIA1-GFP puncta formed due to expression of disease causing TIA1 mutants. (A) Representative images of HEK cells transfected with GFP-tagged wild-type or ALS/FTD-associated mutants (P362L, A381T, or E384K) TIA1. Arrows show TIA1-GFP puncta. (B) Quantification of the percentage of cells with TIA1-GFP puncta greater than 2 μm^2 area in transfected cells relative TIA1-WT-GFP expressing cells. Consistent with previous studies, ALS/FTD- associated TIA1 mutants show increased number of TIA1-GFP puncta as compared to WT-TIA1. (C) HEK cells expressing TIA1-GFP or ALS/FTD-associated mutants TIA1-P362L, TIA1-A381T, TIA1-E384K were treated with sodium arsenite (0.5 mM) for 30 minutes followed by treatment with either 10 μM 190-208 G3BP1 or 168-189 control peptide. The number of cells containing TIA1-GFP puncta were measured and results are reported relative to non-treated controls. Number of HEK cells with TIA1-GFP granules both for WT and ALS/FTD mutants decreased after treatment with 10 μM 190-208 G3BP1 as compared to the 168-189 control peptide treated cells. (N≥90 over 3 cultures; by two-way ANOVA with Tukey HSD post-hoc). Scale bar: 20 μm.

YGNKKNNNQNNN-VVEPEPEPEPEPEPEPVSE [G3BP1 190-208 peptide]
axon degeneration [1]: near completely prevented this axon degeneration; also recorded: rescues amyloid beta oligomer-mediated axonal degeneration | neurite degeneration (E18 midbrain neurons; listed as 190-208 peptide): significant decrease in MPP+-induced degeneration | neurite degeneration (E18 midbrain neurons; listed as G3BP1 190-208): prevented neurite degeneration | neurite degeneration (E18 cortical neurons; listed as 190-208 peptide): significant rescue from Aβ-induced neurite degeneration | neurite degeneration (E18 cortical neurons; listed as G3BP1 190-208): prevented neurite degeneration | number of HEK cells with TIA1-GFP granules ([2]; WT and ALS/FTD mutants, relative to non-treated controls): decreased | size of TIA1 aggregates ([2]; WT and mutant TIA1): decrease the size of the TIA1 aggregates
